In patent US6337417B1, “N-phenyltetrahydrophthalamic acid derivatives, methods of producing same, and herbicides containing same as effective components” (Central Glass Co., Ltd., priority 1994, dated 2002):

Key:
Assay type in all cases: in vivo
garden radish [1] = assay: Experiment 2 foliage treatment: garden radish; set-up: key: 5: completely killed; 4: seriously injured; 3: considerably injured; 2: somewhat injured; 1: slightly injured; 0: not injured (normally grown); details: 4 weeks after treatment
Procedure: (§1) Upon seedling stage (two- or three-leaved stage) of rice, cockspur (Panicum crus-galli), garden radish, aobiyu (slender amaranth, Amaranthus viridis) and mehishiba (henry crabgrass, Digitaria cliaris) which were grown on a cultivated soil put in pots of 1/15500 ares, a selected compound obtained in a manner analogous to Example 8, in suspended wettable powder, was sprayed to each plant. After that, the pots were kept in a glass chamber to allow each plant to grow, and after the lapse of 4 weeks from the treatment with the selected compounds the herbicidal effects were evaluated. The evaluation of the herbicidal effects was similarly conducted as to that of Experiment 1.

[2] = system: aobiyu (slender amaranth, Amaranthus viridis); assay: Experiment 2 foliage treatment: aobiyu; set-up: key: 5: completely killed; 4: seriously injured; 3: considerably injured; 2: somewhat injured; 1: slightly injured; 0: not injured (normally grown); details: 4 weeks after treatment
Procedure: as §1

broad-leaved weeds [3] = assay: Experiment 1 flooded soil treatment: broad-leaved weeds; set-up: key: 5: completely killed; 4: seriously injured; 3: considerably injured; 2: somewhat injured; 1: slightly injured; 0: not injured (normally grown); details: 4 weeks after treatment
Source text: (§2) Paddy soil (clay loam) was put into a pot so as to have a surface area of 1/15500 ares. Uniformly mixed seeds of several kinds of weeds, viz., nobie (barnyardgrass, Echinochloa spp.), broad-leaved weeds, hotarui (bulrush, Scirpus juncoides) and tamagayatsuri (small-flowered umbrellaplant, Cyperus difformis), were sown in the surface layer of the soil in each pot, and then paddy rice seedlings at the two- or three-leaved stage were transplanted into each pot to a depth of 2 cm, and water was fed into each pot so as to provide a 3 cm deep water layer on the soil surface. After 3 days, in other words at the initial stage of germination of nobie (barnyardgrass, Echinochloa spp.), a predetermined amount of a selected compound obtained in a manner analogous to Example 8 in the form of diluted aqueous solution was dropped into the water layer in each pot. After that, the pots were kept in a glass chamber to allow the paddy rice and the weeds to grow, and after the lapse of 4 weeks from the treatment with the selected compounds, the herbicidal effects and the degree of injury to the paddy rice were evaluated. In the table, the herbicidal effects and the degree of injury to the paddy rice are indicated by numerical values, which have the following meaning.
(§3) 0: not injured (normally grown)

[4] = system: cockspur (Panicum crus-galli); assay: Experiment 2 foliage treatment: cockspur; set-up: key: 5: completely killed; 4: seriously injured; 3: considerably injured; 2: somewhat injured; 1: slightly injured; 0: not injured (normally grown); details: 4 weeks after treatment
Procedure: as §1

[5] = system: mehishiba (henry crabgrass, Digitaria cliaris); assay: Experiment 2 foliage treatment: mehishiba; set-up: key: 5: completely killed; 4: seriously injured; 3: considerably injured; 2: somewhat injured; 1: slightly injured; 0: not injured (normally grown); details: 4 weeks after treatment
Procedure: as §1

paddy rice [6] = assay: Experiment 1 flooded soil treatment: injury to paddy rice; details: 4 weeks after treatment
Source text: as §2, §3

[7] = system: nobie (barnyardgrass, Echinochloa spp.); assay: Experiment 1 flooded soil treatment: nobie; set-up: key: 5: completely killed; 4: seriously injured; 3: considerably injured; 2: somewhat injured; 1: slightly injured; 0: not injured (normally grown); details: 4 weeks after treatment
Source text: as §2, §3

[8] = system: hotarui (bulrush, Scirpus juncoides); assay: Experiment 1 flooded soil treatment: hotarui; set-up: key: 5: completely killed; 4: seriously injured; 3: considerably injured; 2: somewhat injured; 1: slightly injured; 0: not injured (normally grown); details: 4 weeks after treatment
Source text: as §2, §3

[9] = system: tamagayatsuri (small-flowered umbrellaplant, Cyperus difformis); assay: Experiment 1 flooded soil treatment: tamagayatsuri; set-up: key: 5: completely killed; 4: seriously injured; 3: considerably injured; 2: somewhat injured; 1: slightly injured; 0: not injured (normally grown); details: 4 weeks after treatment
Source text: as §2, §3

rice [10] = assay: Experiment 2 foliage treatment: rice; set-up: key: 5: completely killed; 4: seriously injured; 3: considerably injured; 2: somewhat injured; 1: slightly injured; 0: not injured (normally grown); details: 4 weeks after treatment
Procedure: as §1

[11] = system: aobiyu (slender amaranth, Amaranthus viridis); assay: Experiment 8 foliage treatment: aobiyu; set-up: key: 5: completely killed; 4: seriously injured; 3: considerably injured; 2: somewhat injured; 1: slightly injured; 0: not injured (normally grown); details: foliage spray of wettable powder suspension, evaluated 4 weeks after treatment
Procedure: as §1, with “14,” for “8,”

rice [12] = assay: Experiment 8 foliage treatment: rice; set-up: key: 5: completely killed; 4: seriously injured; 3: considerably injured; 2: somewhat injured; 1: slightly injured; 0: not injured (normally grown); details: foliage spray of wettable powder suspension, evaluated 4 weeks after treatment
Procedure: as §1, with “14,” for “8,”

[13] = system: nobie (barnyardgrass, Echinochloa spp.); assay: Experiment 7 flooded soil treatment: nobie; set-up: key: 5: completely killed; 4: seriously injured; 3: considerably injured; 2: somewhat injured; 1: slightly injured; 0: not injured (normally grown); details: evaluated 4 weeks after treatment
Source text: (§4) Paddy soil (clay loam) was put into a pot so as to have a surface area of 1/15500 ares. Uniformly mixed seeds of several kinds of weeds, viz., nobie (barnyardgrass, Echinochloa spp.), broad-leaved weeds, hotarui (bulrush, Scirpus juncoides) and tamagayatsuri (small-flowered umbrellaplant, Cyperus difformis), were sown in the surface layer of the soil in each pot, and then paddy rice seedlings at the two- or three-leaved stage were transplanted into each pot to a depth of 2 cm, and water was fed into each pot so as to provide a 3 cm deep water layer on the soil surface. After 3 days, in other words at the initial stage of germination of nobie (barnyardgrass, Echinochloa spp.), a predetermined amount of a selected compound obtained in a manner analogous to Example 14 in the form of diluted aqueous solution was dropped into the water layer in each pot. After that, the pots were kept in a glass chamber to allow the paddy rice and the weeds to grow, and after the lapse of 4 weeks from the treatment with the selected compounds, the herbicidal effects and the degree of injury to the paddy rice were evaluated. The evaluation of the herbicidal effects was similarly conducted as that of Experiment 1.

paddy rice [14] = assay: Experiment 7 flooded soil treatment: injury to paddy rice; set-up: key: 5: completely killed; 4: seriously injured; 3: considerably injured; 2: somewhat injured; 1: slightly injured; 0: not injured (normally grown); details: evaluated 4 weeks after treatment
Source text: as §4

garden radish [15] = assay: Experiment 8 foliage treatment: garden radish; set-up: key: 5: completely killed; 4: seriously injured; 3: considerably injured; 2: somewhat injured; 1: slightly injured; 0: not injured (normally grown); details: foliage spray of wettable powder suspension, evaluated 4 weeks after treatment
Procedure: as §1, with “14,” for “8,”

[16] = system: hotarui (bulrush, Scirpus juncoides); assay: Experiment 7 flooded soil treatment: hotarui; set-up: key: 5: completely killed; 4: seriously injured; 3: considerably injured; 2: somewhat injured; 1: slightly injured; 0: not injured (normally grown); details: evaluated 4 weeks after treatment
Source text: as §4

[17] = system: mehishiba (henry crabgrass, Digitaria cliaris); assay: Experiment 8 foliage treatment: mehishiba; set-up: key: 5: completely killed; 4: seriously injured; 3: considerably injured; 2: somewhat injured; 1: slightly injured; 0: not injured (normally grown); details: foliage spray of wettable powder suspension, evaluated 4 weeks after treatment
Procedure: as §1, with “14,” for “8,”

broad-leaved weeds [18] = assay: Experiment 7 flooded soil treatment: broad-leaved weeds; set-up: key: 5: completely killed; 4: seriously injured; 3: considerably injured; 2: somewhat injured; 1: slightly injured; 0: not injured (normally grown); details: evaluated 4 weeks after treatment
Source text: as §4

[19] = system: tamagayatsuri (small-flowered umbrellaplant, Cyperus difformis); assay: Experiment 7 flooded soil treatment: tamagayatsuri; set-up: key: 5: completely killed; 4: seriously injured; 3: considerably injured; 2: somewhat injured; 1: slightly injured; 0: not injured (normally grown); details: evaluated 4 weeks after treatment
Source text: as §4

[20] = system: cockspur (Panicum crus-galli); assay: Experiment 8 foliage treatment: cockspur; set-up: key: 5: completely killed; 4: seriously injured; 3: considerably injured; 2: somewhat injured; 1: slightly injured; 0: not injured (normally grown); details: foliage spray of wettable powder suspension, evaluated 4 weeks after treatment
Procedure: as §1, with “14,” for “8,”

SMILES	Herbicidal Effect aobiyu ([11]; 40 g/10a)	Herbicidal Effect aobiyu ([11]; 80 g/10a)	Herbicidal Effect rice (rice [12]; 40 g/10a)	Herbicidal Effect rice (rice [12]; 80 g/10a)	Herbicidal Effect nobie ([13]; 6.25 g/10a)	Herbicidal Effect nobie ([13]; 12.5 g/10a)	Injury of Paddy (paddy rice [14]; 6.25 g/10a)	Injury of Paddy (paddy rice [14]; 12.5 g/10a)	Herbicidal Effect garden radish (garden radish [15]; 40 g/10a)	Herbicidal Effect garden radish (garden radish [15]; 80 g/10a)	Herbicidal Effect hotarui ([16]; 6.25 g/10a)	Herbicidal Effect hotarui ([16]; 12.5 g/10a)	Herbicidal Effect mehishiba ([17]; 40 g/10a)	Herbicidal Effect mehishiba ([17]; 80 g/10a)	Herbicidal Effect broad-leaved weed (broad-leaved weeds [18]; 6.25 g/10a)	Herbicidal Effect broad-leaved weed (broad-leaved weeds [18]; 12.5 g/10a)	Herbicidal Effect tamagayatsuri ([19]; 6.25 g/10a)	Herbicidal Effect tamagayatsuri ([19]; 12.5 g/10a)	Herbicidal Effect cockspur ([20]; 40 g/10a)	Herbicidal Effect cockspur ([20]; 80 g/10a)	further results
CCOC(=O)C1=C(C(=O)N(C(C)=O)c2cc(SCC(=O)OC)c(Cl)cc2F)CCCC1 [Compound No. 12]																					Herbicidal Effect garden radish (garden radish [1]; 40 g/10a): 5; Herbicidal Effect garden radish (garden radish [1]; 80 g/10a): 5; Herbicidal Effect aobiyu ([2]; 40 g/10a): 5; Herbicidal Effect aobiyu ([2]; 80 g/10a): 5; Herbicidal Effect broad-leaved weed (broad-leaved weeds [3]; 12.5 g/10a): 5; Herbicidal Effect broad-leaved weed (broad-leaved weeds [3]; 25 g/10a): 5; Herbicidal Effect cockspur ([4]; 40 g/10a): 1; Herbicidal Effect cockspur ([4]; 80 g/10a): 1; Herbicidal Effect mehishiba ([5]; 40 g/10a): 1; Herbicidal Effect mehishiba ([5]; 80 g/10a): 1; Injury of Paddy (paddy rice [6]; 12.5 g/10a): 0.5; Injury of Paddy (paddy rice [6]; 25 g/10a): 0.5; Herbicidal Effect nobie ([7]; 12.5 g/10a): 5; Herbicidal Effect nobie ([7]; 25 g/10a): 5; Herbicidal Effect hotarui ([8]; 12.5 g/10a): 4; Herbicidal Effect hotarui ([8]; 25 g/10a): 5; Herbicidal Effect tamagayatsuri ([9]; 12.5 g/10a): 5; Herbicidal Effect tamagayatsuri ([9]; 25 g/10a): 5; Herbicidal Effect rice (rice [10]; 40 g/10a): 1; Herbicidal Effect rice (rice [10]; 80 g/10a): 1
C#CC(C)Oc1cc(N(C(=O)C2=C(C(=O)OC)CCCC2)C(=O)c2ccc(C)s2)c(F)cc1Cl (stereo not shown) [compound 96]	5	5	1	1	5	5	0	0.5	5	5	4	4	1	1	5	5	5	5	1	1	
COC(=O)C1=C(C(=O)N(C(=O)c2cccs2)c2cc(OC3CCCC3)c(Cl)cc2F)CCCC1 [compound 98]	4	5	1	1	5	5	0.5	0.5	4	4	4	5	1	1	5	5	5	5	1	1	
COC(=O)COc1cc(N(C(=O)C2=C(C(=O)OC)CCCC2)C(=O)c2cccs2)c(F)cc1Cl [compound 99]	4	5	1	1	5	5	0	0	4	4	4	4	1	1	5	5	4	5	1	1	
C#CC(C)Oc1cc(N(C(=O)C2=C(C(=O)OCCC)CCCC2)C(=O)c2ccsc2)c(F)cc1Cl (stereo not shown) [compound 101]	5	5	1	1	5	5	0.5	1	5	5	4	4	1	1	5	5	5	5	1	1	
